Publication PMC11420776 (RSC Advances, 2024)

Assays:
LOX IMIV (melanoma) = assay: NCI 60-cell one-dose antiproliferative screen; type: cell-based, human; settings: one dose 10 μM
IGROV1 (ovarian cancer) = assay: NCI 60-cell one-dose antiproliferative screen; type: cell-based, human; settings: one dose 10 μM
[1] = system: NCI-H522 (NSC lung cancer); assay: NCI 60-cell one-dose antiproliferative screen; type: cell-based, human; settings: one dose 10 μM
SK-MEL-28 (melanoma) = assay: NCI 60-cell one-dose antiproliferative screen; type: cell-based, human; settings: one dose 10 μM
OVCAR-3 (ovarian cancer) = assay: NCI 60-cell one-dose antiproliferative screen; type: cell-based, human; settings: one dose 10 μM
EKVX (NSC lung cancer) = assay: NCI 60-cell one-dose antiproliferative screen; type: cell-based, human; settings: one dose 10 μM
[2] = system: MDA-MB-231/ATCC (breast cancer); assay: NCI 60-cell one-dose antiproliferative screen; type: cell-based, human; settings: one dose 10 μM
UO-31 (renal cancer) = assay: NCI 60-cell one-dose antiproliferative screen; type: cell-based, human; settings: one dose 10 μM
MALME-3M (melanoma) = assay: NCI 60-cell one-dose antiproliferative screen; type: cell-based, human; settings: one dose 10 μM
UACC-62 (melanoma) = assay: NCI 60-cell one-dose antiproliferative screen; type: cell-based, human; settings: one dose 10 μM
PC-3 (prostate cancer) = assay: NCI 60-cell one-dose antiproliferative screen; type: cell-based, human; settings: one dose 10 μM
HCC-2998 (colon cancer) = assay: NCI 60-cell one-dose antiproliferative screen; type: cell-based, human; settings: one dose 10 μM
HCT-15 (colon cancer) = assay: NCI 60-cell one-dose antiproliferative screen; type: cell-based, human; settings: one dose 10 μM
[3] = system: MDA-MB-468 (breast cancer); assay: NCI 60-cell one-dose antiproliferative screen; type: cell-based, human; settings: one dose 10 μM
[4] = system: NCI-H226 (NSC lung cancer); assay: NCI 60-cell one-dose antiproliferative screen; type: cell-based, human; settings: one dose 10 μM
ACHN (renal cancer) = assay: NCI 60-cell one-dose antiproliferative screen; type: cell-based, human; settings: one dose 10 μM
[5] = system: NCI/ADR-RES (ovarian cancer); assay: NCI 60-cell one-dose antiproliferative screen; type: cell-based, human; settings: one dose 10 μM
SNB-19 (CNS cancer) = assay: NCI 60-cell one-dose antiproliferative screen; type: cell-based, human; settings: one dose 10 μM
[6] = system: NCI-H322M (NSC lung cancer); assay: NCI 60-cell one-dose antiproliferative screen; type: cell-based, human; settings: one dose 10 μM
HCT-116 (colon cancer) = assay: NCI 60-cell one-dose antiproliferative screen; type: cell-based, human; settings: one dose 10 μM
[7] = system: NCI-H460 (NSC lung cancer); assay: NCI 60-cell one-dose antiproliferative screen; type: cell-based, human; settings: one dose 10 μM
U251 (CNS cancer) = assay: NCI 60-cell one-dose antiproliferative screen; type: cell-based, human; settings: one dose 10 μM
MCF7 (breast cancer) = assay: NCI 60-cell one-dose antiproliferative screen; type: cell-based, human; settings: one dose 10 μM
MDA-MB-435 (melanoma) = assay: NCI 60-cell one-dose antiproliferative screen; type: cell-based, human; settings: one dose 10 μM
[8] = system: NCI-H23 (NSC lung cancer); assay: NCI 60-cell one-dose antiproliferative screen; type: cell-based, human; settings: one dose 10 μM
COLO-205 (colon cancer) = assay: NCI 60-cell one-dose antiproliferative screen; type: cell-based, human; settings: one dose 10 μM
DU-145 (prostate cancer) = assay: NCI 60-cell one-dose antiproliferative screen; type: cell-based, human; settings: one dose 10 μM
HS 578T (breast cancer) = assay: NCI 60-cell one-dose antiproliferative screen; type: cell-based, human; settings: one dose 10 μM
[9] = system: A549/ATCC (NSC lung cancer); assay: NCI 60-cell one-dose antiproliferative screen; type: cell-based, human; settings: one dose 10 μM
M14 (melanoma) = assay: NCI 60-cell one-dose antiproliferative screen; type: cell-based, human; settings: one dose 10 μM
SF-539 (CNS cancer) = assay: NCI 60-cell one-dose antiproliferative screen; type: cell-based, human; settings: one dose 10 μM
HOP-62 (NSC lung cancer) = assay: NCI 60-cell one-dose antiproliferative screen; type: cell-based, human; settings: one dose 10 μM
KM12 (colon cancer) = assay: NCI 60-cell one-dose antiproliferative screen; type: cell-based, human; settings: one dose 10 μM
SW-620 (colon cancer) = assay: NCI 60-cell one-dose antiproliferative screen; type: cell-based, human; settings: one dose 10 μM
HT29 (colon cancer) = assay: NCI 60-cell one-dose antiproliferative screen; type: cell-based, human; settings: one dose 10 μM
CCRF-CEM (leukemia) = assay: NCI 60-cell one-dose antiproliferative screen; type: cell-based, human; settings: one dose 10 μM
SK-MEL-2 (melanoma) = assay: NCI 60-cell one-dose antiproliferative screen; type: cell-based, human; settings: one dose 10 μM
UACC-257 (melanoma) = assay: NCI 60-cell one-dose antiproliferative screen; type: cell-based, human; settings: one dose 10 μM
786-0 (renal cancer) = assay: NCI 60-cell one-dose antiproliferative screen; type: cell-based, human; settings: one dose 10 μM
HOP-92 (NSC lung cancer) = assay: NCI 60-cell one-dose antiproliferative screen; type: cell-based, human; settings: one dose 10 μM
RPMI-8226 (leukemia) = assay: NCI 60-cell one-dose antiproliferative screen; type: cell-based, human; settings: one dose 10 μM
RXF 393 (renal cancer) = assay: NCI 60-cell one-dose antiproliferative screen; type: cell-based, human; settings: one dose 10 μM
CAKI-1 (renal cancer) = assay: NCI 60-cell one-dose antiproliferative screen; type: cell-based, human; settings: one dose 10 μM
OVCAR-4 (ovarian cancer) = assay: NCI 60-cell one-dose antiproliferative screen; type: cell-based, human; settings: one dose 10 μM
SNB-75 (CNS cancer) = assay: NCI 60-cell one-dose antiproliferative screen; type: cell-based, human; settings: one dose 10 μM
OVCAR-5 (ovarian cancer) = assay: NCI 60-cell one-dose antiproliferative screen; type: cell-based, human; settings: one dose 10 μM
SF-295 (CNS cancer) = assay: NCI 60-cell one-dose antiproliferative screen; type: cell-based, human; settings: one dose 10 μM
SN12C (renal cancer) = assay: NCI 60-cell one-dose antiproliferative screen; type: cell-based, human; settings: one dose 10 μM
A498 (renal cancer) = assay: NCI 60-cell one-dose antiproliferative screen; type: cell-based, human; settings: one dose 10 μM
T-47D (breast cancer) = assay: NCI 60-cell one-dose antiproliferative screen; type: cell-based, human; settings: one dose 10 μM
SF-268 (CNS cancer) = assay: NCI 60-cell one-dose antiproliferative screen; type: cell-based, human; settings: one dose 10 μM
[10] = system: 60 human tumor cell lines; assay: NCI 60-cell one-dose antiproliferative screen, whole panel; type: cell-based; settings: Homo sapiens, 60 cell, read-out: Mean inhibition (mean GI%)
TK-10 (renal cancer) = assay: NCI 60-cell one-dose antiproliferative screen; type: cell-based, human; settings: one dose 10 μM
SK-OV-3 (ovarian cancer) = assay: NCI 60-cell one-dose antiproliferative screen; type: cell-based, human; settings: one dose 10 μM
OVCAR-8 (ovarian cancer) = assay: NCI 60-cell one-dose antiproliferative screen; type: cell-based, human; settings: one dose 10 μM
[11] = MTT cytotoxicity assay, MCF10a; type: cell-based; settings: human, MCF10a normal mammary epithelial cells
caspase-9 = assay: Caspase-9; type: cell-based, human; settings: MCF7 cells, versus untreated control cells

COc1ccc(-c2nnc3ccc(NNC(C)=O)nn23)cc1 [Compound 6b, N′-(3-(4-methoxyphenyl)-[1,2,4]triazolo[4,3-b]pyridazin-6-yl)acetohydrazide]
GI% (LOX IMIV (melanoma)): — (— GI% is below 15%)
GI% (IGROV1 (ovarian cancer)): — (— GI% is below 15%)
GI% [1]: — (— GI% is below 15%)
GI% (SK-MEL-28 (melanoma)): — (— GI% is below 15%)
GI% (OVCAR-3 (ovarian cancer)): — (— GI% is below 15%)
GI% (EKVX (NSC lung cancer)): — (— GI% is below 15%)
GI% [2]: — (— GI% is below 15%)
GI% (UO-31 (renal cancer)): — (— GI% is below 15%)
GI% (MALME-3M (melanoma)): — (— GI% is below 15%)
GI% (UACC-62 (melanoma)): — (— GI% is below 15%)
GI% (PC-3 (prostate cancer)): — (— GI% is below 15%)
GI% (HCC-2998 (colon cancer)): — (— GI% is below 15%)
GI% (HCT-15 (colon cancer)): — (— GI% is below 15%)
GI% [3]: — (— GI% is below 15%)
GI% [4]: — (— GI% is below 15%)
GI% (ACHN (renal cancer)): — (— GI% is below 15%)
GI% [5]: — (— GI% is below 15%)
GI% (SNB-19 (CNS cancer)): — (— GI% is below 15%)
GI% [6]: — (— GI% is below 15%)
GI% (HCT-116 (colon cancer)): — (— GI% is below 15%)
GI% [7]: — (— GI% is below 15%)
GI% (U251 (CNS cancer)): — (— GI% is below 15%)
GI% (MCF7 (breast cancer)): — (— GI% is below 15%)
GI% (MDA-MB-435 (melanoma)): — (— GI% is below 15%)
GI% [8]: — (— GI% is below 15%)
GI% (COLO-205 (colon cancer)): — (— GI% is below 15%)
GI% (DU-145 (prostate cancer)): — (— GI% is below 15%)
GI% (HS 578T (breast cancer)): — (— GI% is below 15%)
GI% [9]: — (— GI% is below 15%)
GI% (M14 (melanoma)): — (— GI% is below 15%)
GI% (SF-539 (CNS cancer)): — (— GI% is below 15%)
GI% (HOP-62 (NSC lung cancer)): — (— GI% is below 15%)
GI% (KM12 (colon cancer)): — (— GI% is below 15%)
GI% (SW-620 (colon cancer)): — (— GI% is below 15%)
GI% (HT29 (colon cancer)): — (— GI% is below 15%)
GI% (CCRF-CEM (leukemia)): — (— GI% is below 15%)
GI% (SK-MEL-2 (melanoma)): — (— GI% is below 15%)
GI% (UACC-257 (melanoma)): — (— GI% is below 15%)
GI% (786-0 (renal cancer)): — (— GI% is below 15%)
GI% (HOP-92 (NSC lung cancer)): — (— GI% is below 15%)
GI% (RPMI-8226 (leukemia)): — (— GI% is below 15%)
GI% (RXF 393 (renal cancer)): — (— GI% is below 15%)
GI% (CAKI-1 (renal cancer)): — (— GI% is below 15%)
GI% (OVCAR-4 (ovarian cancer)): — (— GI% is below 15%)
GI% (SNB-75 (CNS cancer)): — (— GI% is below 15%)
GI% (OVCAR-5 (ovarian cancer)): — (— GI% is below 15%)
GI% (SF-295 (CNS cancer)): — (— GI% is below 15%)
GI% (SN12C (renal cancer)): — (— GI% is below 15%)
GI% (A498 (renal cancer)): — (— GI% is below 15%)
GI% (T-47D (breast cancer)): — (— GI% is below 15%)
GI% (SF-268 (CNS cancer)): — (— GI% is below 15%)
inhibition at 10 µM [10]: < 0%
GI% (TK-10 (renal cancer)): — (— GI% is below 15%)
GI% (SK-OV-3 (ovarian cancer)): — (— GI% is below 15%)
GI% (OVCAR-8 (ovarian cancer)): — (— GI% is below 15%)

CN[C@@H]1C[C@H]2O[C@@](C)([C@@H]1OC)n1c3ccccc3c3c4c(c5c6ccccc6n2c5c31)C(=O)NC4 [Staurosporine, reference compound]
IC50 at 72 h [11]: 18.3 ± 8.03 µM
increase of apoptotic caspase-9 level (caspase-9): 7.19 fold
